Measurements as given in patent US20230086703A1, “N-(4-(5-chloropyridin-3-yl)phenyl)-2-(2-(cyclopropanesulfonamido)pyrimidin-4-yl) butanamide derivatives and related compounds as human CTPS1 inhibitors for the treatment of proliferative diseases” (Step Pharma S.A.S., priority 2019, published 2023).
Where two headings read alike, the source gives them in different places.

Legend:
human CTPS1 [1] = biological target: T1, human CTPS1 (Homo sapiens, UniProt P17812); experiment: Human CTPS1 enzyme inhibition, ADP-Glo Max assay; assay type: biochemical
T1 construct: FLAG (with GG linker); His8 (with GG linker); purchased Proteros biostructures GmbH
T1 sequence (P17812 1-591): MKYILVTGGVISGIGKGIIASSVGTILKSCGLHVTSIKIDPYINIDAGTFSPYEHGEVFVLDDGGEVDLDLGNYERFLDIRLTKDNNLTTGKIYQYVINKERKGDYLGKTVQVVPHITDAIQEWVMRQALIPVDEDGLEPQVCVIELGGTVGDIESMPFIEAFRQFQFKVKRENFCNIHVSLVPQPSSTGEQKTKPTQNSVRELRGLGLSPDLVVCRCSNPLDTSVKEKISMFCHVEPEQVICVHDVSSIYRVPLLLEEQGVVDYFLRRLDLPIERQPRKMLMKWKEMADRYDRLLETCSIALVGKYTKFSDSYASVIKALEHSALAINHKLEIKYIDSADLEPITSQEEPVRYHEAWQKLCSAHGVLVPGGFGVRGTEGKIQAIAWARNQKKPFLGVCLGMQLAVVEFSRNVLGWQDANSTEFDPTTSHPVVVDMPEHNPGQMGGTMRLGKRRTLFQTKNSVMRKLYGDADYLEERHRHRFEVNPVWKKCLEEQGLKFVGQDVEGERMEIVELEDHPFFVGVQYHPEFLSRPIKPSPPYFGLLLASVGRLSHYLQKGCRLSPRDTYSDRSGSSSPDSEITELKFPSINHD
In short: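 Read-out is ADP-Glo Max luminescence: residual ATP depleted (60 min), then produced ADP converted back to ATP for luciferase detection (60 min). Beforehand, protein and compound were mixed for 10 min at 25 °C in Tris buffer pH 8.0 with MgCl2, Tween-20 and 2 mM L-cysteine. Results expressed as percentage inhibition per concentration.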

human CTPS1 [2] = biological target: T1, human CTPS1; experiment: RapidFire/MS-based enzyme selectivity assay (human CTPS1 versus CTPS2), CTPS1 isoform; assay type: biochemical
In short: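 Full-length C-terminal FLAG-His-tagged CTPS1 (1-591) was preincubated 10 min at 25 °C with compound in HEPES pH 8.0 buffer with MgCl2, KCl, DTT and Tween-20. Reactions were started with a 2× mix of ATP 0.3 mM, UTP 0.2 mM, GTP 0.07 mM and L-glutamine 0.1 mM, and run in the linear phase at 25 °C. IC50 comes from the RapidFire-MS ratio of CTP to 13C9-15N3-CTP.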

[3] = Table 12, ADP-Glo Max assay, read-out: CTPS1 (Human CTPS1 Enzyme Inhibition data grouped by potency range)
[4] = RapidFire/MS IC50 values of CTPS1 and CTPS2, Table 17
[5] = Table 16, human CTPS1 over human CTPS2, RapidFire/MS IC50 values

Compound | IC50 (human CTPS1 [1]; [3]) [nM] | Selectivity (fold selectivity between CTPS1 and CTPS2) (human CTPS1 [2]; [4]) | Selectivity (fold selectivity between CTPS1 and CTPS2) (human CTPS1 [2]; [5]) | also measured
CCOc1cncc(-c2ccc(NC(=O)C3(c4ccnc(NS(=O)(=O)C5CC5)n4)CCC(N(C)C)CC3)nc2)n1 (single isomer, unassigned) [P230, 1-(2-(cyclopropanesulfonamido)pyrimidin-4-yl)-4-(dimethylamino)-N-(5-(6-ethoxypyrazin-2-yl)pyridin-2-yl)cyclohexane-1-carboxamide] | 1000 to 10000 | + (2-30 fold (+)) |  | 
CCOc1cncc(-c2ccc(NC(=O)C(F)(CC)c3ccnc(NS(=O)(=O)C4CC4)n3)nc2)n1 (stereo not drawn) [P112, 2-(2-(Cyclopropanesulfonamido)pyrimidin-4-yl)-N-(5-(6-ethoxypyrazin-2-yl)pyridin-2-yl)-2-fluorobutanamide] |  |  |  | IC50 (human CTPS1 [1]; ADP-Glo Max assay, human full length CTPS1, read-out: CTPS1 (Human CTPS1 Enzyme Inhibition data grouped by potency range, IC50)): < 100 nM; Selectivity (fold selectivity between CTPS1 and CTPS2) (human CTPS1 [2]; RapidFire/MS IC50 values of CTPS1 and CTPS2, Table 15): ++ (>30-60 fold (++))
CCOc1cncc(-c2ccc(NC(=O)C3(c4ccnc(NS(=O)(=O)C5CC5)n4)CCN(S(=O)(=O)CC)CC3)nc2)n1 [P289] | < 100 | +++ (>60 fold (+++)) |  | 
CCOc1cncc(-c2ccc(NC(=O)C3(c4ccnc(NS(=O)(=O)C5CC5)n4)CCN(S(=O)(=O)C4CC4)CC3)nc2)n1 [P290] | < 100 | +++ (>60 fold (+++)) |  | 
CCOc1cncc(-c2ccc(NC(=O)C3(c4ccnc(NS(=O)(=O)C5CC5)n4)CCN(S(=O)(=O)N(C)C)CC3)nc2)n1 [P291] | < 100 | +++ (>60 fold (+++)) |  | 
CCOc1cncc(-c2ccc(NC(=O)C3(c4ccnc(NS(=O)(=O)C5CC5)n4)CCN(S(=O)(=O)C(F)(F)F)CC3)nc2)n1 [P292] | < 100 | +++ (>60 fold (+++)) |  | 
CCOc1cncc(-c2ccc(NC(=O)C3(c4ccnc(NS(=O)(=O)C5CC5)n4)CCN(S(=O)(=O)c4ccn(C)n4)CC3)nc2)n1 [P293] | < 100 | +++ (>60 fold (+++)) |  | 
CCOc1cncc(-c2ccc(NC(=O)C3(c4nccc(NS(=O)(=O)C5CC5)n4)CCN(CC#N)CC3)nc2)n1 [P294] | < 100 | +++ (>60 fold (+++)) |  | 
CCOc1cncc(-c2ccc(NC(=O)C3(c4ccnc(NS(=O)(=O)CC)n4)CCN(S(C)(=O)=O)CC3)nc2)n1 [P297] | < 100 | +++ (>60 fold (+++)) |  | 
CCOc1cncc(-c2ccc(NC(=O)C3(c4ccnc(NS(=O)(=O)CC)n4)CCN(S(=O)(=O)CC)CC3)nc2)n1 [P298] | < 100 | +++ (>60 fold (+++)) |  | 
CCOc1cncc(-c2ccc(NC(=O)C3(c4ccnc(NS(=O)(=O)CC)n4)CCN(S(=O)(=O)C4CC4)CC3)nc2)n1 [P299] | < 100 | +++ (>60 fold (+++)) |  | 
CCOc1cncc(-c2ccc(NC(=O)C3(c4ccnc(NS(=O)(=O)CC)n4)CCN(S(=O)(=O)c4ccn(C)n4)CC3)nc2)n1 [P300] | < 100 | +++ (>60 fold (+++)) |  | 
COC1CCC(C(=O)Nc2ccc(-c3cncc(C4CC4)n3)cn2)(c2ccnc(NS(=O)(=O)C3CC3)n2)CC1 (stereo not drawn) [P301] | < 100 | +++ (>60 fold (+++)) |  | 
CCOc1cncc(-c2ccc(NC(=O)C3(c4ccnc(NS(=O)(=O)C5CC5)n4)CCC(N4CCCC4)CC3)nc2)n1 (stereo not drawn) [P302] | < 100 | +++ (>60 fold (+++)) |  | 
CCOc1cncc(-c2ccc(NC(=O)C3(c4ccnc(NS(=O)(=O)C5CC5)n4)CCC(N4CCCC4)CC3)nc2)n1 (stereo not drawn) [P303] | 100 to 1000 | +++ (>60 fold (+++)) |  | 
CCOc1cncc(-c2ccc(NC(=O)C3(c4ccnc(NS(=O)(=O)C5CC5)n4)CCC(N4CCOCC4)CC3)nc2)n1 (stereo not drawn) [P305] | 100 to 1000 | +++ (>60 fold (+++)) |  | 
CCOc1cncc(-c2ccc(NC(=O)C3(c4ccnc(NS(=O)(=O)C5CC5)n4)CCC(N4CCOCC4)CC3)nc2)n1 (stereo not drawn) [P306] | < 100 | +++ (>60 fold (+++)) |  | 
CCOc1cncc(-c2ccc(NC(=O)C3(c4ccnc(NS(=O)(=O)C5CC5)n4)CCC(N(C)C4COC4)CC3)nc2)n1 (stereo not drawn) [P307] | < 100 | +++ (>60 fold (+++)) |  | 

The next lines start with results.

IC50 (human CTPS1 [1]; [3]) [nM] | Selectivity (fold selectivity between CTPS1 and CTPS2) (human CTPS1 [2]; [4]) | Selectivity (fold selectivity between CTPS1 and CTPS2) (human CTPS1 [2]; [5]) | Compound | also measured
 |  | ++ (>30-60 fold (++)) | Cc1sc(NS(=O)(=O)C2CC2)nc1C(C)(C)NC(=O)c1ccc(-c2cncc(C(F)(F)F)n2)cc1 [R78, N-(2-(2-(cyclopropanesulfon-amido)-5-methylthiazol-4-yl)propan-2-yl)-4-(6-(trifluoromethyl)pyrazin-2-yl)benzamide] | 
 |  | + (2-30 fold (+)) | CC(C)(NC(=O)c1ccc(-c2cncc(C(F)(F)F)n2)cc1)c1nc(NS(=O)(=O)C2CC2)sc1Cl [R79, N-(2-(5-chloro-2-(cycloprop-anesulfonamido)thiazol-4-yl)propan-2-yl)-4-(6-(trifluoromethyl)pyrazin-2-yl)benzamide] | 
 |  | +++ (>60 fold (+++)) | CCOc1cncc(-c2ccc(C(=O)NC3(c4csc(NS(=O)(=O)C5CC5)n4)CC3)nc2)n1 [R80, N-(1-(2-(cyclopropanesulfon-amido)thiazol-4-yl)cyclo-propyl)-5-(6-ethoxypyrazin-2-yl)picolinamide] | 
 |  | +++ (>60 fold (+++)) | CCOc1cncc(-c2ccc(C(=O)NC3(c4csc(NS(=O)(=O)C5CC5)n4)CC3)c(F)c2)n1 [R82, N-(1-(2-(cyclopropanesulfon-amido)thiazol-4-yl)cyclo-propyl)-4-(6-ethoxypyrazin-2-yl)-2-fluorobenzamide] | 
 |  | +++ (>60 fold (+++)) | Cc1cc(-c2cncc(C(F)(F)F)n2)ccc1C(=O)NC1(c2csc(NS(=O)(=O)C3CC3)n2)CC1 [R83, N-(1-(2-(cyclopropanesulfon-amido)thiazol-4-yl)cyclopropyl)-2-methyl-4-(6-(trifluoromethyl)pyrazin-2-yl)benzamide] | 
 |  | +++ (>60 fold (+++)) | O=C(NC1(c2csc(NS(=O)(=O)C3CC3)n2)CC1)c1ccc(-c2cncc(C(F)(F)F)n2)cc1 [R84, N-(1-(2-(cyclopropanesulfon-amido)thiazol-4-yl)cyclopropyl)-4-(6-(trifluoromethyl)pyrazin-2-yl)benzamide] | 
 |  | +++ (>60 fold (+++)) | CCc1cncc(-c2ccc(C(=O)NC(CCOC)c3csc(NS(=O)(=O)C4CC4)n3)c(F)c2)n1 (stereo not drawn) [R86, N-(1-(2-(cyclopropanesulfon-amido)thiazol-4-yl)-3-methoxypropyl)-4-(6-ethyl-pyrazin-2-yl)-2-fluorobenzamide] | 
 |  | ++ (>30-60 fold (++)) | COCCC(NC(=O)c1ccc(-c2cncc(C(F)(F)F)n2)cc1F)c1csc(NS(=O)(=O)C2CC2)n1 (stereo not drawn) [R87, N-(1-(2-(cyclopropanesulfon-amido)thiazol-4-yl)-3-methoxypropyl)-2-fluoro-4-(6-(trifluoromethyl)pyrazin-2-yl)benzamide] | 
 |  | +++ (>60 fold (+++)) | CCOc1cncc(-c2ccc(C(=O)NC(CCOC)c3csc(NS(=O)(=O)C4CC4)n3)c(F)c2)n1 (stereo not drawn) [R88, N-(1-(2-(cyclopropanesulfon-amido)thiazol-4-yl)-3-methoxypropyl)-4-(6-ethoxypyrazin-2-yl)-2-fluorobenzamide] | 
 |  | +++ (>60 fold (+++)) | COCCC(NC(=O)c1ccc(-c2cncc(OC(C)C)n2)cc1F)c1csc(NS(=O)(=O)C2CC2)n1 (stereo not drawn) [R89, N-(1-(2-(cyclopropanesulfon-amido)thiazol-4-yl)-3-methoxypropyl)-2-fluoro-4-(6-isopropoxypyrazin-2-yl)benzamide] | 
 |  | ++ (>30-60 fold (++)) | CCOc1cncc(-c2ccc(C(=O)NC(CCOC)c3csc(NS(=O)(=O)C4CC4)n3)cc2)n1 (stereo not drawn) [R90, N-(1-(2-(cyclopropanesulfon-amido)thiazol-4-yl)-3-methoxypropyl)-4-(6-ethoxy-pyrazin-2-yl)benzamide] | 
 |  | +++ (>60 fold (+++)) | CCOc1cncc(-c2ccc(C(=O)NC(C)c3csc(NS(=O)(=O)C4CC4)n3)c(F)c2)n1 (stereo not drawn) [R91, N-(1-(2-(cyclopropanesulfon-amido)thiazol-4-yl)ethyl)-4-(6-ethoxypyrazin-2-yl)-2-fluorobenzamide] | 
